Source: US20220401514A1, “ANTIMICROBIAL, BACTERIOPHAGE-DERIVED POLYPEPTIDES AND THEIR USE AGAINST GRAM-NEGATIVE AND ACID-FAST BACTERIA” (CONTRAFECT CORPORATION, priority 2019, published 2022)
In brackets after ≈: the same amount, converted by molar mass.

What was measured:
[1] = system: carbapenem-resistant bacterial strains; assay: organism not typed; assay type: cell-based; settings: carbapenem-resistant isolate PA23
Text: Determination of Minimal Inhibitory Concentrations (MIC).

[2] = system: P. aeruginosa strain CFS-1292; assay: Checkerboard assay (FICI) with antibiotics, P. aeruginosa; assay type: cell-based, Pseudomonas aeruginosa; settings: for Antibiotic FIC: P. aeruginosa CFS-1292; for Antibiotic MIC in checkerboard: P. aeruginosa CFS-1292, CAA + […] human serum
Protocol: Any known method to assess MIC may be used.
Checkerboards are constructed by first preparing columns of e.g., a 96-well polypropylene microtiter plate, wherein each well has the same amount of antibiotic diluted 2-fold along the horizontal axis. […] Bacteria are added to the drug combinations at concentrations of 1×10^5 […] in CAA, for example, with or without human serum or pulmonary surfactant. […] Summation fractional inhibitory concentrations (ΣFICs) are calculated for each drug and the minimum ΣFIC value (ΣFICmin) is used to determine the effect of the Chp peptide/antibiotic combination.
(§1) Checkerboard assays. […] Checkerboards were constructed by first preparing columns of a 96-well polypropylene microtiter plate, in which each well had the same amount of antibiotic diluted 2-fold along the horizontal axis. […] Summation fractional inhibitory concentration index (FICIs) were calculated for each drug and the minimum FICI was used to determine synergy. FICIs were calculated as follows: FICI=FIC A+FIC B, where FIC A is the MIC of each antibiotic in the combination/MIC of the each antibiotic alone, and FIC B is the MIC of each Chp peptide in the combination/MIC of each Chp peptide alone. The combination is considered synergistic when the FICI is ≤0.5, strongly additive when the FICI is >0.5 to <1, additive with the FICI is 1-<2, and antagonistic when the FICI is ≥2.
In the checkerboard assay, fractional inhibitory concentration index (FICI) values are calculated.

[3] = system: Klebsiella pneumoniae strain 1139; assay: Checkerboard assay (FICI) with antibiotics, K. pneumoniae; assay type: cell-based
Protocol: as §1

[4] = system: Acinetobacter baumannii strain 30; assay: Checkerboard assay (FICI) with antibiotics, A. baumannii; assay type: cell-based; settings: checkerboard
Protocol: as §1
The results are shown below in Tables 22-27.

[5] = system: Stenotrophomonas-containing biofilm on explanted hemodialysis catheters; assay: Antibiofilm activity in explanted hemodialysis catheters; assay type: cell-based, Stenotrophomonas spp.
Protocol: The explanted hemodialysis catheters were cut into equal length segments and bisected to expose the lumen.
The samples were treated for 4 hours at 37° C. before rinsing with Lactated Ringer's solution.
Three additional infected hemodialysis catheter samples were removed from two patients (one catheter from a first patient and two catheters from a second patient). […] The samples were incubated at 37° C. for 4 hours.

[6] = checkerboard, in combination with Chp4-M1
[7] = checkerboard, in combination with Chp6-M1
[8] = checkerboard, in combination with Chp10-M1

C[C@@H](O)[C@H]1C(=O)N2C(C(=O)O)=C(S[C@@H]3CN[C@H](C(=O)N(C)C)C3)[C@H](C)[C@H]12 [meropenem, reference compound]
MIC [1]: 8 mg/L (≈ 20.9 µM) | Antibiotic FIC ([2]; combined with Chp2-M1): 0.25 | Antibiotic MIC in checkerboard ([2]; combined with Chp2-M1): 4 mg/L | Antibiotic FIC ([2]; combined with Chp2): 0.25 | Antibiotic MIC in checkerboard ([2]; combined with Chp2): 4 mg/L | Antibiotic FIC ([2]; combined with Chp4-M1): 0.25 | Antibiotic MIC in checkerboard ([2]; combined with Chp4-M1): 4 mg/L | Antibiotic FIC ([2]; combined with Chp6-M1): 0.25 | Antibiotic MIC in checkerboard ([2]; combined with Chp6-M1): 4 mg/L | Antibiotic FIC ([2]; combined with Chp10-M1): 0.25 | Antibiotic MIC in checkerboard ([2]; combined with Chp10-M1): 2 mg/L | Antibiotic FIC ([2]; combined with Unp2-M1): 0.25 | Antibiotic MIC in checkerboard ([2]; combined with Unp2-M1): 4 mg/L | Antibiotic FIC [3, 6]: 0.125 | Antibiotic MIC [3, 6]: 0.007812 mg/L | Antibiotic FIC [3, 7]: 0.25 | Antibiotic MIC [3, 7]: 0.01562 mg/L | Antibiotic FIC [3, 8]: 0.125 | Antibiotic MIC [3, 8]: 0.01562 mg/L | Antibiotic FIC ([3]; checkerboard, in combination with Unp2-M1): 0.03125 | Antibiotic FIC ([3]; combined with Chp2): 0.25 | Antibiotic MIC in checkerboard ([3]; combined with Chp2): 0.01562 mg/L | Antibiotic FIC ([3]; combined with Chp2-M1): 0.25 | Antibiotic MIC in checkerboard ([3]; combined with Chp2-M1): 0.01562 mg/L | Antibiotic FIC ([4]; in combination with Chp2): 0.25 | Antibiotic FIC ([4]; in combination with Chp2-M1): 0.25 | Antibiotic FIC ([4]; in combination with Chp4-M1): 0.25 | Antibiotic FIC ([4]; in combination with Chp6-M1): 0.25 | Antibiotic FIC ([4]; in combination with Chp10-M1): 0.125 | Antibiotic FIC ([4]; in combination with Unp2-M1): 0.25 | eradication of biofilm on three additional catheter samples ([5]; Chp2-M1 1 μg/mL and 10 μg/mL, meropenem 1 μg/mL): did not eliminate biofilm | log10 CFU/g ([5]; second catheter sample from the second patient, 1 μg/mL, 4 hours): 3.16 log10 CFU/g
